By viability is commonly meant a read-out of living cells in per cent, often relative to untreated cells.

Data on 80 compounds can be found in publication PMC12040169 (PLOS Biology, 2025).

The data set is described as follows: in vitro. To be noted: human, hela cells, % viability.

Take `O=C1CCCN1CCCNC(=O)N1CCCC(CO)C1` (centres unmarked) [CBK156063]: the viability at 28.5 h, 10 µM was 94.3%. The same measure, in the same setting: the same measure for `O=C(O)C1CCN(C(=O)[C@@H]2Cc3ccccc3CN2)CC1` [CBK286638]: 91%; for `O=C(O)C1CCC(CNc2ccc([N+](=O)[O-])cn2)CC1` (centres unmarked) [CBK286626]: 81.2%. For `Cc1cn(CC(=O)N2CCCC3(CCN(C(=O)c4cc(F)c(F)cc4F)C3)C2)c(=O)[nH]c1=O` (centres unmarked) [CBK131561], the viability at 28.5 h, 10 µM is 101%. With `CC(C)(C)NC(=O)N1CCC2(CC1)OCc1cc(Br)ccc1O2` [CBK060739], the viability at 28.5 h, 10 µM (bulk resorufin, single well) is 106%. Turning to `CC(C)(O)Cc1ccccc1C(=O)NC1CCCCCC1` [CBK010502], the viability at 28.5 h, 10 µM was found to be 81.7%. Same read-out and setting: the same measure for `O=C(NCc1ccccc1)c1cnsn1` [CBK267302]: 90.8%. Still for that read-out and setting: then `COc1cccc(NC(=O)CN(c2ccccc2)S(=O)(=O)c2ccc(Cl)cc2)c1` [CBK265366], with 102%. Still for that read-out and setting: the same measure for `CC(=O)c1ccc(N2CCN(S(=O)(=O)c3ccc(O)c(C(=O)O)c3)CC2)cc1` [CBK296961]: 94%; for `O=C(Nc1cccnc1)C1CCN(C(=O)OCc2ccccc2)CC1` [CBK083187]: 90.6%; for `O=C(Nc1ccc(-c2ccccc2)cc1)c1cccc(S(=O)(=O)NCC2CCCO2)c1` (centres unmarked) [CBK296994]: 95.7%. On to `CC(=O)c1cc(C(=O)Nc2cnn(Cc3ccc(F)cc3)c2)cs1` [CBK282528], for which the viability at 28.5 h, 10 µM is 104%.

With `C[C@@H](Nc1cncc(-c2cccc(N)c2)n1)c1ccccc1` [CBK065273], the viability at 28.5 h, 10 µM was determined as 87.1%. The same measure, in the same setting: then `Cc1nn(C)cc1CNC(=O)C1C2CCC(C2)C1C(=O)O` (centres unmarked) [CBK286875], with 89.3%; and `Cc1ccc(C2(O)CCN(Cc3cnn(C)c3C)CC2)cc1` [CBK282736], with 96.5%; and `O=C(c1csc2c1CCCC2)N1CCc2c(nc[nH]c2=O)C1` [CBK283717], with 77.7%. For the compound `COC(=O)CC1(CC(=O)OC)C(=O)N(C)C(=O)N(C)C1=O` [CBK268554], the viability at 28.5 h, 10 µM (bulk resorufin, single well) was found to be 98.5%. As for `COc1ccc(-c2ccc3ccc(=O)[nH]c3n2)cc1C` [CBK073712], the viability at 28.5 h, 10 µM was found to be 108%. Same read-out and setting: the same measure for `O=C(O)c1ccc(CSc2nc(-c3ccccc3)cc(C(F)(F)F)n2)o1` [CBK269514]: 105%; for `CCC(=O)N1CCC2(CC1)CNC(=O)c1cc(C)ccc1O2` [CBK282468]: 85.2%; for `COc1ncccc1C(=O)N1CCN(c2ccccc2)CC1` [CBK200166]: 103%. On the same count and under the same terms, the same measure for `CN1CCN(C(=O)c2ccsc2NS(=O)(=O)c2ccc(-c3ccccc3)cc2)CC1` [CBK042274]: 103%. The same measure, in the same setting: the same measure for `O=C(N1CCC(c2ccncc2)CC1)C1(c2ccccc2)CC1` [CBK285480]: 102%; for `Cc1nc2nc(N)nn2c(C)c1CCC(=O)NCc1ccccc1` [CBK304986]: 95.7%; for `COc1ccccc1Cc1cccc(C2CCN(CC(=O)Nc3nccs3)CC2)n1` [CBK286227]: 95.1%. `COc1ccc2oc(-c3ccc(NC(=O)c4cccc5ccccc45)cc3)nc2c1` [CBK267610]: the viability at 28.5 h, 10 µM worked out at 110%. Still for that read-out and setting: the same measure for `Cn1c(=O)n(CC(=O)NCc2ccccc2F)c2cccnc21` [CBK283909]: 88.1%. Consider `Cc1cccc(-c2nc3ccc(NC(=O)CCC(=O)O)cc3o2)c1` [CBK269773], for which the viability at 28.5 h, 10 µM is 95.1%. Same read-out and setting: the same measure for `O=C(O)c1cc2cc(F)ccc2[nH]1` [CBK017929]: 86.3%; for `CSc1nccc(OCCOc2nccnc2N2CCNCC2)n1` [CBK000718G]: 104%. On the same count and under the same terms, then `c1ccc(OCCOc2nccnc2-c2cc3ccccc3s2)cc1` [CBK106787], with 92.3%. Same read-out and setting: then `COC(=O)C(C)CSc1ccc(C(C)(C)C)cc1` (centres unmarked) [CBK010499], with 107%; and `Cc1cc(C)cc(NC(=O)CSc2ncnc3c2oc2ccccc23)c1` [CBK287394], with 90.5%. As to `O=C(CCn1c(-c2ccccn2)cc2cccnc21)NC1CCCC1` [CBK284965], the viability at 28.5 h, 10 µM turned out to be 98.3%. As to `CCCn1c(SCC(=O)N2CCN(S(=O)(=O)c3ccc(C)cc3C)CC2)n[nH]c1=O` [CBK295590], the viability at 28.5 h, 10 µM came to 104%.

For the compound `CS(=O)(=O)c1ccc(-c2ccc(C(=O)NCc3cccc(C(F)(F)F)c3)cn2)cc1` [CBK158874], the viability at 28.5 h, 10 µM amounted to 91.4%.

In the case of `CCC(C)(C)c1ccc(S(=O)(=O)NCC2CC2)cc1` [CBK044994], the viability at 28.5 h, 10 µM turned out to be 93%.

For `OCC(O)CN1CCc2ccccc21` (centres unmarked) [CBK260896], the viability at 28.5 h, 10 µM amounted to 101%. In the case of `CCOC(=O)N1CCC(NC(=O)c2ccc3nc4ccccc4c(=O)n3c2)CC1` [CBK294447], the viability at 28.5 h, 10 µM came to 81.1%.

For `CN1CCCN(Cc2ccc([N+](=O)[O-])s2)CC1` [CBK261558], the viability at 28.5 h, 10 µM came out at 94%. Still for that read-out and setting: the same measure for `O=C(O)c1cccc(-c2cn3ccnc3c(N3CCOCC3)n2)c1` [CBK038053]: 84%. For `COc1ccc(C(=O)O)cc1N1C(=O)CC(c2c(C)nn(-c3ccccc3)c2N)C1=O` (centres unmarked) [CBK291120], the viability at 28.5 h, 10 µM turned out to be 112%. Same read-out and setting: then `N#Cc1c(-c2ccccc2)noc1C/C=N/O` [CBK007357], with 87.7%; and `O=C1CC(c2ccccc2)CC(=O)N1c1nnn[nH]1` [CBK291154], with 85.5%.

For `COc1ccc(OC)c(N(CC(=O)N2CCN(C)CC2)S(=O)(=O)c2ccccc2)c1` [CBK264131], the viability at 28.5 h, 10 µM was found to be 98.8%.

Consider `CS(=O)(=O)c1ccc(CNC(=O)c2ccccc2Nc2cccc(C(F)(F)F)c2)cc1` [CBK149580], for which the viability at 28.5 h, 10 µM was 92%. As to `Cc1ccccc1C(=O)NCC(=O)Nc1ccc(Cl)nc1` [CBK091335], the viability at 28.5 h, 10 µM turned out to be 103%. For `Cc1cnc(CNC(=O)c2ccc3nc[nH]c3c2)cn1` [CBK153318], the viability at 28.5 h, 10 µM turned out to be 88.4%. With `COc1ccc(Oc2cncc(OC3CCN(CCCn4c(=O)[nH]c5ccccc54)C3)n2)cc1OC` (centres unmarked) [CBK084406], the viability at 28.5 h, 10 µM is 97.6%.

Consider `O=C(C1=C(O)C(=O)N(CCCn2ccnc2)C1c1ccncc1)c1cccs1` (centres unmarked) [CBK111017], for which the viability at 28.5 h, 10 µM is 106%. Take `Cc1cc2ncn(CC(=O)NC3Cc4ccccc4C3)c2cc1C` [CBK200261]: the viability at 28.5 h, 10 µM turned out to be 97.3%. Take `Cc1cccc(OCC2CCCN(C(=O)C3(Cn4cccn4)CC3)C2)c1` (centres unmarked) [CBK306578]: the viability at 28.5 h, 10 µM came out at 102%.

As to `Cn1cncc1CN(Cc1ccccn1)Cc1ccccc1Cl` [CBK282129], the viability at 28.5 h, 10 µM is 105%.

Take `CN1CCN(c2ccc(/C=c3\sc4nc5ccccc5n4c3=O)cc2[N+](=O)[O-])CC1` [CBK263048]: the viability at 28.5 h, 10 µM worked out at 89.3%.

As for `CC1=C[C@@H](CN2CCC(O)CC2)[C@H](C(C)C)C[C@H]1Cc1nnc(-c2ccccc2)o1` [CBK289220], the viability at 28.5 h, 10 µM was 97.2%. Turning to `Cc1ccc(C)c(NC(CC(=O)c2ccccc2)C(=O)O)c1` (centres unmarked) [CBK265485], the viability at 28.5 h, 10 µM was 102%. For the compound `COCCn1c(SC(C)C(=O)NC2CC2)nc2ccc(Br)cc2c1=O` (centres unmarked) [CBK305481], the viability at 28.5 h, 10 µM worked out at 108%. As for `O=C(O)c1ccc2c(c1)C(=O)N(c1ccc(-c3ccc(N4C(=O)c5ccc(C(=O)O)cc5C4=O)cc3)cc1)C2=O` [CBK261187], the viability at 28.5 h, 10 µM was 99.3%. Same read-out and setting: the same measure for `Cc1cc(C(=O)NCCCC2CCOC2)c2cccc(Cl)c2n1` (centres unmarked) [CBK282550]: 91.7%; for `Cn1ccnc1CNc1nc(C(C)(C)C)nc2c1cnn2C` [CBK306894]: 100%; for `CCOC(=O)C(C)N1C(=O)S/C(=C/c2cc(Cl)c(OCC(=O)O)c(Br)c2)C1=O` (centres unmarked) [CBK265163]: 99.9%. `COc1cccc(NC(=O)N2CCC(n3c(=O)n(C(=O)Nc4cccc(OC)c4)c4ccccc43)CC2)c1` [CBK149177]: the viability at 28.5 h, 10 µM worked out at 94.8%. Still for that read-out and setting: the same measure for `CCNS(=O)(=O)c1ccc(NC(=O)c2cc(-c3ccccn3)nc3c(C)c(C)ccc23)cc1` [CBK267733]: 97.3%.

In the case of `COc1ncc(-c2cnc3[nH]c(=O)n(Cc4ccc(S(C)(=O)=O)cc4)c3n2)cn1` [CBK065053], the viability at 28.5 h, 10 µM amounted to 103%. The same measure, in the same setting: the same measure for `COc1ccccc1CN1CCC2(CCCNC2=O)CC1` [CBK284823]: 85.2%. On the same count and under the same terms, then `Cc1ccc(CSCCNS(=O)(=O)c2ccc3ccccc3c2)cc1` [CBK268048], with 107%. As for `CCOc1cccc(-c2cn3ccnc3c(Nc3ccc(Cl)cc3)n2)c1` [CBK066505], the viability at 28.5 h, 10 µM worked out at 92.1%. The same measure, in the same setting: then `Nc1ncc(-c2cccc(CO)c2)nc1N1CCOCC1` [CBK063406], with 97.6%; and `CONc1nc(NC(C)(C)C)nc(OCC#N)n1` [CBK263655], with 85.9%; and `COc1ccnc(N2CCN(Cc3nnnn3C3CC3)CC2)n1` [CBK305808], with 85.6%.

For `O=S(=O)(Nc1cccc2[nH]ccc12)c1ccc(F)cc1F` [CBK153546], the viability at 28.5 h, 10 µM is 62.2%. On the same count and under the same terms, then `CS(=O)(=O)c1ccc(-c2cnc(N)c(NC3CCC(O)CC3)n2)cc1` (centres unmarked) [CBK063865], with 110%. The same measure, in the same setting: then `CC(=O)N1CCC2(CCCC[C@H]3CN(C(=O)C(C)C)CC[C@@H]3NC(=O)CNC2=O)CC1` [CBK292121], with 102%; and `C=CCn1c(Cc2csc(NC(=O)c3cccc([N+](=O)[O-])c3)n2)n[nH]c1=S` [CBK295339], with 106%. Still for that read-out and setting: the same measure for `NS(=O)(=O)c1cnccc1NCCc1ccccc1` [CBK058003]: 103%. In the case of `CCN1CCc2cc(-c3cncn3CC(=O)NC(C)(C)C)ccc21` [CBK281698], the viability at 28.5 h, 10 µM is 94.8%.

For the compound `COc1cc(NC(=O)N2CCCCC2CO)cc(OC)c1OC` (centres unmarked) [CBK155986], the viability at 28.5 h, 10 µM came out at 92%. On the same count and under the same terms, then `Cc1cc(=O)n(CC(=O)Nc2ccc3c(c2)OCO3)cn1` [CBK287835], with 109%.

Turning to `Nc1nccn(CCOc2cc(F)c(F)cc2F)c1=O` [CBK138204T], the viability at 28.5 h, 10 µM was 92.6%. Still for that read-out and setting: then `CC(C)(C)Nc1cc(NCCc2ccccc2)nc(N)n1` [CBK012708], with 86.8%.
